The record followed here is US8134001B2, “Spiroindolinone derivatives” (Hoffmann-La Roche Inc., priority 2007, dated 2012).

SMILES strings stand for the structures.

The target of this test is interaction between p53 and MDM2 proteins (recombinant GST-tagged MDM2 / biotinylated p53 peptide) (Homo sapiens, UniProt Q00987). Put plainly: HTRF assay of inhibition of the p53-MDM2 interaction. It counts as binding. Conditions: 0.2% BSA. Here is the method: The ability of the compounds to inhibit the interaction between p53 and MDM2 proteins was measured by an HTRF (homogeneous time-resolved fluorescence) assay in which recombinant GST-tagged MDM2 binds to a peptide that resembles the MDM2-interacting region of p53 (Lane et al.). Binding of GST-MDM2 protein and p53-peptide (biotinylated on its N-terminal end) is registered by the FRET (fluorescence resonance energy transfer) between Europium (Eu)-labeled anti-GST antibody and streptavidin-conjugated Allophycocyanin (APC).
Chain of interaction between p53 and MDM2 proteins (recombinant GST-tagged MDM2 / biotinylated p53 peptide) (Q00987 whole entry): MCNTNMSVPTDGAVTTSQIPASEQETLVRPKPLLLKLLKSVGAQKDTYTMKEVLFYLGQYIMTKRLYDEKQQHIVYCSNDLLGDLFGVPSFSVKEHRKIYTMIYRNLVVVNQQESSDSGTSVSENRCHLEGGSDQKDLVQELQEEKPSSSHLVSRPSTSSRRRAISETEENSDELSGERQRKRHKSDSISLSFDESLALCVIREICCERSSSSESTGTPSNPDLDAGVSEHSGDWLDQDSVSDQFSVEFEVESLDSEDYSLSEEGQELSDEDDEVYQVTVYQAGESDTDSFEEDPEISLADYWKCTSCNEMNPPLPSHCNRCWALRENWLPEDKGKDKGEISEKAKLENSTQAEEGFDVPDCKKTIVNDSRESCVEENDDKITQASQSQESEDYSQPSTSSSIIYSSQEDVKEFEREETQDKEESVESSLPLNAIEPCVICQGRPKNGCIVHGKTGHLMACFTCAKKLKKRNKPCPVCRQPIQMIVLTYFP
Test is performed in black flat-bottom 384-well plates (Costar) in a total volume of 40 uL containing: 90 nM biotinylate peptide, 160 ng/ml GST-MDM2, 20 nM streptavidin-APC (PerkinElmerWallac), 2 nM Eu-labeled anti-GST-antibody (PerkinElmerWallac), 0.2% bovine serum albumin (BSA), 1 mM dithiothreitol (DTT) and 20 mM Tris-borate saline (TBS) buffer as follows: Add 10 uL of GST-MDM2 (640 ng/ml working solution) in reaction buffer to each well. Add 10 uL diluted compounds (1:5 dilution in reaction buffer) to each well, mix by shaking. Add 20 uL biotinylated p53 peptide (180 nM working solution) in reaction buffer to each well and mix on shaker. Incubate at 37° C. for 1 h. Add 20 uL streptavidin-APC and Eu-anti-GST antibody mixture (6 nM Eu-anti-GST and 60 nM streptavidin-APC working solution) in TBS buffer with 0.2% BSA, shake at room temperature for 30 minutes and read using a TRF-capable plate reader at 665 and 615 nm (Victor 5, Perkin ElmerWallac). If not specified, the reagents were purchased from Sigma Chemical Co.
Regarding `C#Cc1ccc(OCC2CCN(C(=O)OC(C)(C)C)CC2)c([C@H]2NC(=O)C[C@@H](c3cccc(Cl)c3)[C@]23C(=O)Nc2cc(Cl)ccc23)c1` (racemic) [Example 2, racemic(2′R,3R,4′S)-2′-[2-(1-(tert-butoxycarbonyl)-4-piperidinylmethoxy)-5-ethynyl-phenyl]-6-chloro-4′-(3-chlorophenyl)spiro[3H-indole-3,3′-piperidine]-2,6′(1H)-dione], the IC50 came out at 0.205 µM.
For `C#Cc1ccc(OC2CCN(C(=O)N(CC)CC)CC2)c([C@H]2NC(=O)C[C@@H](c3cccc(Cl)c3)[C@]23C(=O)Nc2cc(Cl)ccc23)c1` (racemic) [Example 22b, racemic(2′R,3R,4′S)-6-chloro-4′-(3-chlorophenyl)-2′-[2-(1-diethylcarbamoyl-4-piperidinyloxy)-5-ethynyl-phenyl]spiro[3H-indole-3,3′-piperidine]-2,6′(1H)-dione] the value was 0.042 µM; for `O=C1C[C@@H](c2cccc(Cl)c2)[C@]2(C(=O)Nc3cc(Cl)ccc32)[C@@H](c2cc(Br)ccc2Oc2ccc(C(=O)NCCN3CCCC3)cc2)N1` (racemic) [Example 56, racemic(2′R, 3R, 4′S)-2′-{5-bromo-2-[4-(2-pyrrolidin-1-yl-ethylcarbamoyl)-phenoxy]-phenyl}-6-chloro-4′-(3-chlorophenyl)spiro[3H-indole-3,3′-piperidine]-2,6′(1H)-dione], 0.131 µM; for `CC(=O)Nc1ccc(Oc2ccc(Cl)cc2[C@H]2NC(=O)C[C@@H](c3cccc(Cl)c3)[C@]23C(=O)Nc2cc(Cl)ccc23)cc1` (racemic) [Example 87, racemic(2′R, 3R, 4′S)-2′-[2-(4-acetylamino-phenoxy)-5-chloro-phenyl]-6-chloro-4′-(3-chlorophenyl)spiro[3H-indole-3,3′-piperidine]-2,6′(1H)-dione], 0.048 µM.
On to `CC(=O)N1CCC(Oc2ccc(I)cc2[C@H]2NC(=O)[C@@H](c3cccc(Cl)c3)C[C@]23C(=O)Nc2cc(Cl)ccc23)CC1` [Example 5c, chiral(2′R,3R,4′S)-2′-[2-(1-acetyl-4-piperidinyloxy)-5-iodo-phenyl]-6-chloro-4′-(3-chlorophenyl)spiro[3H-indole-3,3′-piperidine]-2,6′(1H)-dione], for which the IC50 stood at 0.034 µM.
